Assay results taken from patent publication US20030153081A1, “Viral core protein-cationic lipid-nucleic acid-delivery complexes” (priority 1999, published 2003).

Tests used:
ND7 cells [1] = assay: X-gal staining, cationic lipid variations in ND7 cells; assay type: cell-based, rat/mouse; settings: ND7, Liposome:DNA 3:1 w/w
Method: We determined whether LMD complexes could be bettered by incorporating poly cationic cholesterol lipids (WO 97/45442). CDAN (B198), ACHx (CJE52) and CTAP (B232) (FIG. 9) were used to make cationic liposomes in place of DC-Chol. Each cationic liposome system used was composed of 60 mol % of cationic lipid and 40 mol % of DOPE and prepared as described in Example 4. The following different LMD complex systems were prepared and compared: LMD(DC-Chol), LMD(B198), LMD(CJE52), and LMD(B232). All LMD systems were prepared with cationic liposomes (total lipid 20 μmol) and 0.6 mg of Mu1 peptide per 1.0 mg of DNA (pCMVβ), as described above.
Liposome:DNA (LD) complex mixtures (lipoplexes) were prepared for control experiments with a Liposome:DNA ratio of 3:1 (w/w), the optimal composition for transfection of ND7 cells.
Transfection in ND7 cells; ND7 cells were seeded in NGM (with 10% serum) at a density of approximately 4×10^4 cells per well, in a 24-well culture plate. After 24 h, cells were washed by brief exposure to NGM (serum free) and then treated with solutions containing LMD or LD complexes, prediluted with NGM (serum free) (final DNA concentration 2.5 μg/ml in all cases), for 1 h. Cells were then washed again and incubated for a further 48 h prior to processing for histochemical staining with X-gal. The number of cells stained blue were counted under an inverted microscope.

plasmid DNA (pCMVβ) = assay: gel retardation assay (DNA binding analysis)
Method: One microgram of pCMVβ was incubated with 0 μg (lane 2), 5 μg (lane 3), 10 μg (lane 4), 15 μg (lane 5), 20 μg (lane 6), 25 μg (lane 7) and 30 μg (lane 8) of BSA for 10 minutes at room temperature in 1× HBS. Samples were then analyzed on a 1% agarose gel for altered mobility.
When ratios of 0.5 (w/w) or greater were used, however, migration of both forms of pDNA was severely retarded.
C). The Polyomavirus protein Vp1 was much less efficient at preventing pDNA migration. pCMVβ (1 μg) was incubated with 2 μg (lane 2), 4 μg (lane 3), 6 μg (lane 4), 8 μg (lane 5), 16 μg (lane 6), 32 μg (lane 7) and 0 μg (lane 8) Vp1. Only ratios of 6 or higher (protein: pDNA, w/w) caused significant retardation of supercoiled pDNA (lane 6, lower band). Also, not until a ratio of 32 (w/w) was used was there any effect on relaxed pDNA (lane 7, upper band). In all gels lane 1 corresponds to 1 Kb DNA marker (BRL).
The purified peptides were reconstituted in sterile distilled H2O at 3 mg/mL. Peptide and pDNA were complexed in 20 μL HEPES buffered saline (137 mM NaCl, 5 mM KCl, 0.75 mM Na2HPO4, 19 mM HEPES, pH 7.4) for 20 minutes at room temperature. Peptide: pDNA complexes were subsequently analyzed by agarose gel electrophoresis (1%). Control incubations for general macromolecular pDNA interactions were performed with varying amounts of molecular biology grade purified bovine serum albumin (Sigma).
Varying amounts of purified peptide were incubated at room temperature in HBS for approximately 10 minutes and then analyzed by agarose gel electrophoresis. Without the addition of peptide, supercoiled and relaxed circular plasmid DNA (pDNA) migrated in the expected manner (FIG. 1, lane 8).

ND7 cells [2] = assay: β-galactosidase reporter gene assay, transfection of undifferentiated ND7 cells; assay type: cell-based, rat/mouse; settings: peptide with cationic liposome, pCMVβ:liposome 1:3 w/w
Method: ND7 cells were seeded at a density of 5 ×10^4 cells/well in 24 well culture dishes 24 hrs prior to transfection. Immediately prior to transfection, cells were washed in serum-free media. Complexes were formed by incubating pCMVβ with Mu1 prior to the addition of the cationic liposome DC-Chol/DOPE. In each case 1 μg pCMVβ was complexed with 0.6, 6, 12, and 21 μg Mu1 peptide. Each of these combinations was then complexed with 3, 4 and 6 μg DC-Chol/DOPE. ND7 cells were exposed to transfection complexes for 2 hours then maintained at 37° C., 5% CO2 for another 24 hrs before being harvested and processed for β-galactosidase enzyme assay. Numbers represent means±SD, n=3.
pCMVβ plasmid DNA was complexed to various amounts of polycationic peptide and then mixed with cationic liposome at a ratio of 1:3 (pCMVβ:liposome; w/w). After being washed briefly in serum free media, ND7 cells were exposed to the […] complexes for two hours and then returned to serum containing media Twenty-four hours later the cells were harvested and processed for β-galactosidase enzyme assay. Each condition was performed in triplicate and each experiment replicated three times. Numbers represent means±SD.
ND7s are a well-characterized cell line derived from the fusion of a neuroblastoma N18Tg2) with neonatal rat sensory neurons ^28. The cell line was maintained in normal growth media (NGM) (Leibovitz's L-15 media (BRL) enriched with 10% Fetal bovine serum (BRL), 4 g/L glucose, 4 g/L sodium bicarbonate (BRL), 100 IU/mL penicillin/streptomycin (BRL)) at 37° C. and 5% CO2. The cells were plated onto 24 well plates (Costar) at a density that produced 70% confluence after 24 hours.
Since initial experiments determined that the presence of fetal bovine serum inhibited transfection of ND7 cells serum-free differentiation media was used for all transfections. Various amounts of DNA and liposome were placed in the bottom of a 7 mL sterile Bijou container (Bibby Sterilin Ltd., Staffordshire, U.K.), but not in contact with each other.
DNA and liposomes were combined by the addition of 400 μL serum-free differentiation media and gentle shaking. The DNA: liposome mixture was incubated at room temperature for 20 to 30 minutes before being applied to the cells. The DNA/liposome mixture was then applied to the cells and incubated at 37° C., 5% CO2 for 2 hours after which this media was replaced with complete media Twenty four to 48 hours later the cells were fixed and processed for X-gal histochemistry as described ^31 or harvested for β-galactosidase enzyme assays (Promega Corp.).
Transfection complexes including the test peptides were generated in the following manner. Various amounts of peptide was placed in the bottom of sterile polystyrene containers alongside, but not in contact with 1 μg·pCMVβ and mixed by adding 400 μl serum free NGM media The complexes were incubated at room temperature for 10 minutes after which DC-Chol/DOPE was added. The pDNA/peptide/liposome complex was further incubated at room temperature for 20 minutes and then administered to cells as above.
We examined the ability of Mu1 and Vp1 to enhance the transfection of a neuronal cell line by cationic liposomes using a β-Galactosidase reporter gene assay. ND7 cells were transfected with pCMVβ complexed to varying amounts of peptide and DC-Chol/DOPE. We have previously shown that the cationic liposome DC-Chol/DOPE is capable of efficiently transfecting the neuronally derived ND7 cell line ^31. […] Temporally, maximal levels of transgene expression are obtained between 48-60 hours post transfection. Therefore, in order to maximize the chance of detecting improvements in transfection we performed all our assays within 12-20 hours of transfection at a time when levels of reporter gene expression were lower. Previously we found a pDNA: liposome ratio of 1:3 (w/w) optimal for transfections in ND7 cells ^31. […]

[3] = charge ratios worked out from the sequence; assay type: physicochemical
Source text: Mu1 is a polycationic peptide comprised of 19 amino acids associated with the core complex of Adenovirus (Table 1) ^27, 32. We compared the DNA binding capacity of Mu1 with the mouse polyomavirus major capsid protein Vp1 by interaction with plasmid DNA in a gel retardation assay. Vp1 is a 19 amino acid peptide that contains a nuclear localization signal ^26 and contains fewer positively charged amino acids than Mu1. It was therefore predicted to have a lower DNA binding capacity.
The success of non-viral gene delivery vehicles as viable alternatives to virus vector-based systems is dependent on the development of complexes with higher and longer lasting transfection efficiencies. Since the initial identification of cationic liposomes as vehicles for the transfer of genetic material into cells there has been a large push to develop better cationic liposome formulations ^5, 7. Most attempts at improving cationic liposomes have been based on structural modifications to the molecule itself ^30. Novel formulations have been developed which have improved transfection efficiencies ^30. However, particular cell types behave differently in regards to cationic liposomal transfection. For example, we found the polypeptide Mu1 better at enhancing cationic liposome mediated transfection than Vp1. This was probably due to Mu1's greater charge ratio. While both peptides are approximately the same molecular weight, the overall charge ratio of Mu1 was more than twice that of Vp1 (Table 1). […] While a small shift in pDNA mobility was detected when 0.25 μg Mu1 was complexed to 1 μg pCMVβ, almost all of the plasmid was retained near the loading well following addition of 0.5 μg Mu1 (FIG. 1). A 0.5/1.0 (w/w) ratio of Mu1 to pCMVβ corresponds to a 1000/1 molar ratio. Each molecule of Mu1 contains 12 residues that could potentially carry a positive charge. The theoretical charge ratio of Mu1 to pCMVβ would then be 1.6 (12000 Mu1 cations to 7500 pCMVβ anions).

HeLa cells = assay: β-galactosidase assay, alternative cationic peptides in HeLa cells; assay type: cell-based, human; settings: DC-Chol:DOPE liposome:peptide:DNA 12:0.6:1, 30 min, DNA 1.0 μg/ml
Method: In order to examine the effects of various alternative cationic peptides on transfection activities, a series of liposome:cationic peptide:DNA complexes were prepared and their relative transfection abilities analysed in vitro. The peptides used were poly-lysine hydrochloride (average molecular weight 3970, Sigma), poly arginine hydrochloride (average molecular weight 11800, Sigma) a peptide derived from protein V, pV (p5, sequence shown below), a peptide analogue of Mu1 (V, sequence shown below) and Mu1 peptide itself. The p5 peptide and V peptide were synthesized using the same solid-phase peptide synthesis methodology as was used to prepare Mu1 peptide.
Each peptide was combined with cationic liposome (DC-Chol:DOPE 3:2 m/m) and DNA (pCMVβ) in the liposome:peptide:DNA ratio of 12:0.6:1 (w/w/w) as described in Example 4. The transfection activities were examined using HeLa cells (human epithelial cells). The cells were seeded at an approximate density of 5×10^4 per well in a 24-well culture plate in DMEM supplemented with 10% FCS and grown for 24 h in the presence of 5% CO2 at 37° C. Cells were washed by brief exposure to DMEM and then treated with solutions containing LMD or LD complexes, prediluted with OPTIMEM (Gibco) (final DNA concentration 1.0 μg/ml in all cases), for 30 min. Cells were then washed again and incubated for a further 48 h in DMEM supplemented with 10% FCS prior to harvesting. The level of β-galactosidase enzyme activity was determined with a standard assay kit (chemiluminescent, Roche).

CC(C)CCCC(C)C1CCC2C3CC=C4CC(OC(=O)NCCNCCCNCCN)CCC4(C)C3CCC12C (stereo not drawn) [B198]
rank order in transfection efficiency, corresponding LD systems (ND7 cells [1]): B198>DC-Chol>B232

CC(C)CCC[C@@H](C)[C@H]1CC[C@H]2[C@@H]3CC=C4C[C@@H](OC(=O)NCCN(C)C)CC[C@]4(C)[C@H]3CC[C@]12C [DC-Chol, 3β[N-(N′,N′-dimethylaminoethane)carbamoyl] cholesterol, reference compound]
rank order in transfection efficiency, corresponding LD systems (ND7 cells [1]): B198>DC-Chol>B232

NH2—Met—Ala—Pro—Lys—Arg—Lys—Ser—Gly—Val—Ser—Lys—Cys—Glu—Thr—Lys—Cys—Thr—Pro—Pro—OH (H-MAPKRKSGVSKCETKCTPP-OH; cysteine pairing not given here) [Vp1, 19 amino acid peptide of mouse polyomavirus major capsid protein Vp1, contains a nuclear localization signal, reference compound]
ratio protein:pDNA at which there was first any effect on relaxed pDNA (plasmid DNA (pCMVβ); 1 μg pCMVβ, 1% agarose gel): 32 w/w | ratio protein:pDNA causing significant retardation of supercoiled pDNA (plasmid DNA (pCMVβ); 1 μg pCMVβ, 1% agarose gel): ≥ 6 w/w | effect on electrophoretic mobility of plasmid DNA (plasmid DNA (pCMVβ); pDNA:protein ratios up to 1:8 (w/w)): no effect on the electrophoretic mobility | improvement on transfection efficiency (ND7 cells [2]): no improvement on transfection efficiency | Charge/AA ratio [3]: 0.26

RPRRRATTRRRTTTGTRRRRRRR [p5, peptide derived from protein V, pV]
transfection activity compared to poly lysine and poly arginine complexes (HeLa cells): excellent transfection activity

VRRVHHRRRRVSHRRVRGG [peptide analogue of Mu1]
transfection activity compared to poly lysine and poly arginine complexes (HeLa cells): excellent transfection activity
